Results from paper PMC2895771 (Journal of the American Chemical Society, 2010).

What was measured:
[1] = tested on: GST-ING2PHD; type: biochemical; settings: probe 1 (1 μM); GST-ING2PHD 10 μg/mL, 280 nM; Hela cell lysates 2 mg/mL; in words
[2] = tested on: double tudor domain of JMJD2A; type: biochemical; settings: probe 1 (1 μM), protein 100 ng; in words
[3] = tested on: PHD finger of BPTF; assay: labeling of recombinant BPTF PHD finger by probe 1 and competition by peptides; type: biochemical; settings: probe 1 (1 μM), protein 100 ng; in words
[4] = molecular target: T1, GST-fused PHD finger of ING2 (GST-ING2PHD) (Homo sapiens, UniProt Q9H160); assay: UV photocrosslinking labeling of recombinant GST-ING2PHD by probe 1; type: biochemical; settings: UV irradiation 1 h, coupled to rhodamine azide; in words
T1 sequence (Q9H160 212-261 limits assumed): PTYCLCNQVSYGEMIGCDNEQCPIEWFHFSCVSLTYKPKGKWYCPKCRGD

[5] = tested on: endogenous ING2; assay: capture of endogenous ING2 from Hela cell lysates; settings: probe 1 (2 μM), UV, biotin-N3, streptavidin, Western blot, in words

## probe 1: H3K4me3 peptide probe; benzophenone moiety replaced the side chain of Ala 7; spacer (H3 residues 8–15) and an alkyne (ARTKQT; not fully specified; trimethyl-lysine at 4 (K(me3)); benzophenone moiety in place of the side chain of Ala 7; an alkyne group)
[1]
  labeling of GST-ING2PHD in cell lysates: robustly labeled
[2]
  labeling of recombinant protein: robust labeling
[3]
  labeling of recombinant protein: robust labeling
[4]
  labeling of the recombinant protein: successfully labeled the recombinant protein in a dose-dependent manner
[5]
  capture of endogenous ING2: endogenous ING2 was captured by the probe
